Test [1] concerns the target Estrogen receptor (Homo sapiens, UniProt Q92731+P03372). Kind of test: Inhibition of estradiol induced estrogen receptor transcriptional activation in MCF-7-2a cells. Type of test: functional, cell-based.
Test [2] deals with MCF7. Briefly: Inhibition of MCF-7 cell proliferation at 5 uM. The class given is functional, Homo sapiens.

The structures appear in SMILES notation.

In test [1], `CCCC(=C(c1ccc(O)cc1)c1ccc(O)cc1)c1ccc(O)cc1` returned an IC50 of 70 nM. The same molecule yielded a T/C corr in test [2] of 102%.
Taken in the same sequence, the figures for `CCC(=C(c1ccc(O)cc1)c1ccc(O)cc1)c1ccc(O)cc1` were 10 nM and 97%.
Molecule `CC(=C(c1ccc(O)cc1)c1ccc(O)cc1)c1ccc(O)cc1` displayed an IC50 in test [1] of 15 nM. Moreover, the T/C corr in test [2] was found to be 88%.
`CC/C(=C(\c1ccc(O)cc1)c1ccc(OCCN(C)C)cc1)c1ccccc1` registered a T/C corr in test [2] of 25%.
`Oc1ccc(C=C(c2ccc(O)cc2)c2ccc(O)cc2)cc1`: the IC50 in test [1] came to 200 nM. In test [2], this molecule gave a T/C corr of 70%.
For `CCCCC(=C(c1ccc(O)cc1)c1ccc(O)cc1)c1ccc(O)cc1`, in test [1], the IC50 was determined as 240 nM. In test [2], this molecule had a T/C corr of 114%.
In test [2], `CC/C(=C(\c1ccccc1)c1ccc(OCCN(C)C)cc1)c1ccccc1` [TAMOXIFEN] displayed a T/C corr of 15%.

Usually IC50 stands for the concentration that gives 50% inhibition. A higher IC50 goes with a need for much substance.

(Values after ChEMBL document CHEMBL1136763, “Antiestrogenically active 1,1,2-tris(4-hydroxyphenyl)alkenes without basic side chain: synthesis and biological activity” (J Med Chem, 2003).)
